{"source": "ChEMBL document CHEMBL1201862", "about": "“PubChem BioAssay data set” (2004)", "assay_in_all_cases": "NCI tumour cell line growth inhibition, 48 h", "key": {"786-0": {"system": "786-0"}, "A498": {"system": "A498"}, "A549": {"system": "A549"}, "ACHN": {"system": "ACHN"}, "CAKI-1": {"system": "CAKI-1"}, "CCRF-CEM": {"system": "CCRF-CEM"}, "COLO 205": {"system": "COLO 205"}, "DLD-1": {"system": "DLD-1"}, "DMS-114": {"system": "DMS-114"}, "DMS-273": {"system": "DMS-273"}, "EKVX": {"system": "EKVX"}, "HCC 2998": {"system": "HCC 2998"}, "HCT-116": {"system": "HCT-116"}, "HCT-15": {"system": "HCT-15"}, "HL-60": {"system": "HL-60"}, "HOP-18": {"system": "HOP-18"}, "HOP-62": {"system": "HOP-62"}, "HOP-92": {"system": "HOP-92"}, "IGROV-1": {"system": "IGROV-1"}, "K562": {"system": "K562"}, "KM-20L2": {"system": "KM-20L2"}, "KM12": {"system": "KM12"}, "LOX IMVI": {"system": "LOX IMVI"}, "LXFL 529": {"system": "LXFL 529"}, "M14": {"system": "M14"}, "M19-MEL": {"system": "M19-MEL"}, "MOLT-4": {"system": "MOLT-4"}, "Malme-3M": {"system": "Malme-3M"}, "NCI-H226": {"system": "NCI-H226"}, "NCI-H23": {"system": "NCI-H23"}, "NCI-H460": {"system": "NCI-H460"}, "NCI-H522": {"system": "NCI-H522"}, "OVCAR-3": {"system": "OVCAR-3"}, "OVCAR-4": {"system": "OVCAR-4"}, "OVCAR-5": {"system": "OVCAR-5"}, "OVCAR-8": {"system": "OVCAR-8"}, "RPMI-8226": {"system": "RPMI-8226"}, "RXF 393": {"system": "RXF 393"}, "RXF 631": {"system": "RXF 631"}, "SF-268": {"system": "SF-268"}, "SF-295": {"system": "SF-295"}, "SF-539": {"system": "SF-539"}, "SK-MEL-28": {"system": "SK-MEL-28"}, "SK-MEL-2": {"system": "SK-MEL-2"}, "SK-MEL-5": {"system": "SK-MEL-5"}, "SK-OV-3": {"system": "SK-OV-3"}, "SN12C": {"system": "SN12C"}, "SNB-19": {"system": "SNB-19"}, "SNB-75": {"system": "SNB-75"}, "SNB-78": {"system": "SNB-78"}, "SR": {"system": "SR"}, "SW-620": {"system": "SW-620"}, "TK-10": {"system": "TK-10"}, "U-251": {"system": "U-251"}, "UACC-257": {"system": "UACC-257"}, "UACC-62": {"system": "UACC-62"}, "UO-31": {"system": "UO-31"}, "XF498": {"system": "XF498"}}, "note": "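Tested at 5 concentrations; 48 h exposure; 96-well plates; endpoints linearly interpolated, else capped at highest concentration. The concentration for 50% growth inhibition is given as GI50.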 Activity calls are given as the source filed them. Rule as the data show it: active = GI50 up to about 1.1 µM and inactive = higher.", "data": [{"smiles": "CN(C)C(=O)/N=c1\\ss/c(=N\\C(=S)N(C)C)n1-c1ccccc1", "values": [{"measurement": "GI50", "setting": "786-0", "value": "19.6 µM (inactive)"}, {"measurement": "GI50", "setting": "A498", "value": "56.8 µM (inactive)"}, {"measurement": "GI50", "setting": "A549", "value": "35.5 µM (inactive)"}, {"measurement": "GI50", "setting": "ACHN", "value": "23 µM (inactive)"}, {"measurement": "GI50", "setting": "CAKI-1", "value": "> 100 µM (inactive)"}, {"measurement": "GI50", "setting": "CCRF-CEM", "value": "0.184 µM (active)"}, {"measurement": "GI50", "setting": "COLO 205", "value": "35.3 µM (inactive)"}, {"measurement": "GI50", "setting": "DLD-1", "value": "26.6 µM (inactive)"}, {"measurement": "GI50", "setting": "DMS-114", "value": "10.3 µM (inactive)"}, {"measurement": "GI50", "setting": "DMS-273", "value": "0.125 µM (active)"}, {"measurement": "GI50", "setting": "EKVX", "value": "> 63.5 µM (inactive)"}, {"measurement": "GI50", "setting": "HCC 2998", "value": "> 100 µM (inactive)"}, {"measurement": "GI50", "setting": "HCT-116", "value": "13.5 µM (inactive)"}, {"measurement": "GI50", "setting": "HCT-15", "value": 15, "unit": "µM"}, {"measurement": "GI50", "setting": "HL-60", "value": "8.34 µM (inactive)"}, {"measurement": "GI50", "setting": "HOP-18", "value": "> 10 µM (inactive)"}, {"measurement": "GI50", "setting": "HOP-62", "value": "> 68.9 µM (inactive)"}, {"measurement": "GI50", "setting": "HOP-92", "value": "> 51.4 µM (inactive)"}, {"measurement": "GI50", "setting": "IGROV-1", "value": "29.4 µM (inactive)"}, {"measurement": "GI50", "setting": "K562", "value": "0.294 µM (active)"}, {"measurement": "GI50", "setting": "KM-20L2", "value": "54 µM (inactive)"}, {"measurement": "GI50", "setting": "KM12", "value": "57.5 µM (inactive)"}, {"measurement": "GI50", "setting": "LOX IMVI", "value": "3.53 µM (inactive)"}, {"measurement": "GI50", "setting": "LXFL 529", "value": "7.55 µM (inactive)"}, {"measurement": "GI50", "setting": "M14", "value": "20 µM (inactive)"}, {"measurement": "GI50", "setting": "M19-MEL", "value": "31.9 µM (inactive)"}, {"measurement": "GI50", "setting": "MOLT-4", "value": "7.78 µM (inactive)"}, {"measurement": "GI50", "setting": "Malme-3M", "value": "42.9 µM (inactive)"}, {"measurement": "GI50", "setting": "NCI-H226", "value": "27.2 µM (inactive)"}, {"measurement": "GI50", "setting": "NCI-H23", "value": "18.7 µM (inactive)"}, {"measurement": "GI50", "setting": "NCI-H460", "value": "17 µM (inactive)"}, {"measurement": "GI50", "setting": "NCI-H522", "value": "< 0.01 µM (active)"}, {"measurement": "GI50", "setting": "OVCAR-3", "value": "21.2 µM (inactive)"}, {"measurement": "GI50", "setting": "OVCAR-4", "value": "16.8 µM (inactive)"}, {"measurement": "GI50", "setting": "OVCAR-5", "value": "> 90.2 µM (inactive)"}, {"measurement": "GI50", "setting": "OVCAR-8", "value": "20.9 µM (inactive)"}, {"measurement": "GI50", "setting": "RPMI-8226", "value": "17 µM (inactive)"}, {"measurement": "GI50", "setting": "RXF 393", "value": "38.4 µM (inactive)"}, {"measurement": "GI50", "setting": "RXF 631", "value": "36.1 µM (inactive)"}, {"measurement": "GI50", "setting": "SF-268", "value": "25.6 µM (inactive)"}, {"measurement": "GI50", "setting": "SF-295", "value": "40.2 µM (inactive)"}, {"measurement": "GI50", "setting": "SF-539", "value": "35.4 µM (inactive)"}, {"measurement": "GI50", "setting": "SK-MEL-28", "value": "18.1 µM (inactive)"}, {"measurement": "GI50", "setting": "SK-MEL-2", "value": "> 57 µM (inactive)"}, {"measurement": "GI50", "setting": "SK-MEL-5", "value": "29.6 µM (inactive)"}, {"measurement": "GI50", "setting": "SK-OV-3", "value": "> 100 µM (inactive)"}, {"measurement": "GI50", "setting": "SN12C", "value": "45.8 µM (inactive)"}, {"measurement": "GI50", "setting": "SNB-19", "value": "35.6 µM (inactive)"}, {"measurement": "GI50", "setting": "SNB-75", "value": "13.8 µM (inactive)"}, {"measurement": "GI50", "setting": "SNB-78", "value": "65.8 µM (inactive)"}, {"measurement": "GI50", "setting": "SR", "value": "10 µM (inactive)"}, {"measurement": "GI50", "setting": "SW-620", "value": "28.3 µM (inactive)"}, {"measurement": "GI50", "setting": "TK-10", "value": "31.4 µM (inactive)"}, {"measurement": "GI50", "setting": "U-251", "value": "27 µM (inactive)"}, {"measurement": "GI50", "setting": "UACC-257", "value": "15.5 µM (inactive)"}, {"measurement": "GI50", "setting": "UACC-62", "value": "14.4 µM (inactive)"}, {"measurement": "GI50", "setting": "UO-31", "value": "33 µM (inactive)"}, {"measurement": "GI50", "setting": "XF498", "value": "43.7 µM (inactive)"}]}]}
